Results from PubChem BioAssay (NCI).
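In this assay, cells in 96-well plates receive the compound at five concentrations for 48 hours. Endpoints are linearly interpolated between the surrounding concentrations. The concentration for full growth arrest is given as TGI.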

How the values were obtained:
Assay in all cases: NCI anticancer screen, dose series, 48 h
[1] = tested on: LOX IMVI melanoma
[2] = tested on: SNB-19 CNS
[3] = tested on: CAKI-1 renal
[4] = tested on: SF-295 CNS
[5] = tested on: SF-539 CNS
[6] = tested on: MDA-MB-435
[7] = tested on: HS 578T breast
[8] = tested on: SR leukemia
[9] = tested on: SW-620 colon
[10] = tested on: HOP-62 NSCLC
[11] = tested on: NCI/ADR-RES ovarian
[12] = tested on: EKVX NSCLC
[13] = tested on: SK-MEL-5 melanoma
[14] = tested on: HL-60(TB) leukemia
[15] = tested on: OVCAR-3 ovarian
[16] = tested on: COLO 205 colon
[17] = tested on: NCI-H226 lung
[18] = tested on: NCI-H23 lung
[19] = tested on: SK-MEL-28 melanoma
[20] = tested on: OVCAR-5 ovarian
[21] = tested on: HOP-92 NSCLC
[22] = tested on: SK-OV-3 ovarian
[23] = tested on: A549 NSCLC
[24] = tested on: SK-MEL-2 melanoma
[25] = tested on: TK-10 renal
[26] = tested on: MDA-MB-231 breast
[27] = tested on: KM12 colon
[28] = tested on: M14 melanoma
[29] = tested on: MCF7 breast
[30] = tested on: SN12C renal
[31] = tested on: UO-31 renal
[32] = tested on: OVCAR-8 ovarian
[33] = tested on: HCT-15 colon
[34] = tested on: HT29 colon
[35] = tested on: UACC-62 melanoma
[36] = tested on: NCI-H522 lung
[37] = tested on: U251 CNS
[38] = tested on: 786-0 renal
[39] = tested on: DU-145 prostate
[40] = tested on: K-562 leukemia
[41] = tested on: MOLT-4 leukemia
[42] = tested on: UACC-257 melanoma
[43] = tested on: NCI-H460 lung
[44] = tested on: PC-3 prostate
[45] = tested on: OVCAR-4 ovarian
[46] = tested on: BT-549 breast
[47] = tested on: MALME-3M melanoma
[48] = tested on: SF-268 CNS
[49] = tested on: RXF 393 renal
[50] = tested on: T-47D breast
[51] = tested on: ACHN renal
[52] = tested on: HCT-116 colon
[53] = tested on: IGROV1 ovarian
[54] = tested on: SNB-75 CNS

## CC1=NN(C(=O)c2ccc(Cl)cc2)C(=O)C1N=Nc1ccc(S(=O)(=O)Nc2ncccn2)cc1 (centres undefined)
[1]
  TGI: > 100 µM
[2]
  TGI: > 100 µM
[3]
  TGI: > 100 µM
[4]
  TGI: > 100 µM
[5]
  TGI: > 100 µM
[6]
  TGI: > 100 µM
[7]
  TGI: > 100 µM
[8]
  TGI: > 100 µM
[9]
  TGI: > 100 µM
[10]
  TGI: > 100 µM
[11]
  TGI: > 100 µM
[12]
  TGI: > 100 µM
[13]
  TGI: > 100 µM
[14]
  TGI: > 100 µM
[15]
  TGI: > 100 µM
[16]
  TGI: > 100 µM
[17]
  TGI: > 100 µM
[18]
  TGI: > 100 µM
[19]
  TGI: > 100 µM
[20]
  TGI: > 100 µM
[21]
  TGI: 2.07 µM
[22]
  TGI: > 100 µM
[23]
  TGI: > 100 µM
[24]
  TGI: > 100 µM
[25]
  TGI: > 100 µM
[26]
  TGI: > 100 µM
[27]
  TGI: > 100 µM
[28]
  TGI: > 100 µM
[29]
  TGI: > 100 µM
[30]
  TGI: > 100 µM
[31]
  TGI: > 100 µM
[32]
  TGI: > 100 µM
[33]
  TGI: > 100 µM
[34]
  TGI: > 100 µM
[35]
  TGI: > 100 µM
[36]
  TGI: > 100 µM
[37]
  TGI: > 100 µM
[38]
  TGI: > 100 µM
[39]
  TGI: > 100 µM
[40]
  TGI: > 100 µM
[41]
  TGI: > 100 µM
[42]
  TGI: > 100 µM
[43]
  TGI: > 100 µM
[44]
  TGI: 5.11 µM
[45]
  TGI: > 100 µM
[46]
  TGI: > 100 µM
[47]
  TGI: > 100 µM
[48]
  TGI: > 100 µM
[49]
  TGI: > 100 µM
[50]
  TGI: > 100 µM
[51]
  TGI: > 100 µM
[52]
  TGI: > 100 µM
[53]
  TGI: > 100 µM
[54]
  TGI: > 100 µM
